This note sets out measurements from article PMC5516229 (2017).

Experiment [1] has as its system G1 (DNA, G4) AGGGTTAGGGTTAGGGTTAGGG
Nature of the experiment: UV/Vis titration. As to conditions: 10 mM Tris-HCl pH 7.04, 20 μM complex, apparent, per base pair.

In experiment [2] the test system is G2T1 (DNA, G4) AGGGTTAGGGTTAGGGTTAGGGTTAGGGTTAGGGTTAGGGTTAGGG
Nature of the experiment: UV/Vis titration. As to conditions: 10 mM Tris-HCl pH 7.04, 20 μM complex, apparent, per base pair.

For experiment [3], the system named is G1 (DNA, G4) AGGGTTAGGGTTAGGGTTAGGG
The experiment can be described thus: CD melting, 295 nm. As to conditions: 100 mM NaCl, 10 mM Tris-HCl pH 7.04.

Experiment [4] deals with G2T1 (DNA, G4) AGGGTTAGGGTTAGGGTTAGGGTTAGGGTTAGGGTTAGGGTTAGGG
The experiment can be described thus: CD melting, 295 nm. As to conditions: 100 mM NaCl, 10 mM Tris-HCl pH 7.04, 2.5 μM DNA.

Experiment [5] relates to G2T2 (DNA, G4) AGGGTTAGGGTTAGGGTTAGGGTTATTAGGGTTAGGGTTAGGGTTAGGG
The experiment can be described thus: CD melting, 295 nm. As to conditions: 100 mM NaCl, 10 mM Tris-HCl pH 7.04.

The test system of experiment [6] is G2T4 (DNA, G4) AGGGTTAGGGTTAGGGTTAGGGTTATTATTATTAGGGTTAGGGTTAGGGTTAGGG
The experiment can be described thus: CD melting, 295 nm. As to conditions: 100 mM NaCl, 10 mM Tris-HCl pH 7.04.

For experiment [7], the system named is G2T6 (DNA, G4) AGGGTTAGGGTTAGGGTTAGGGTTATTATTATTATTATTAGGGTTAGGGTTAGGGTTAGGG
The experiment can be described thus: CD melting, 295 nm. As to conditions: 100 mM NaCl, 10 mM Tris-HCl pH 7.04.

Experiment [8] has as its system G1 (DNA, G4) AGGGTTAGGGTTAGGGTTAGGG
Nature of the experiment: native gel electrophoresis. As to conditions: 100 mM NaCl; 10 mM Tris-HCl pH 7.04; 16 μM DNA, 32 μM complex.

The test system of experiment [9] is G2T1 (DNA, G4) AGGGTTAGGGTTAGGGTTAGGGTTAGGGTTAGGGTTAGGGTTAGGG
The experiment can be described thus: native gel electrophoresis. As to conditions: 100 mM NaCl, 10 mM Tris-HCl pH 7.04, 8 μM DNA.

Experiment [10] relates to Ap7 (DNA, G4, 2-aminopurine at 7) AGGGTTAGGGTTAGGGTTAGGGTTAGGGTTAGGGTTAGGGTTAGGG
The experiment can be described thus: 2-aminopurine fluorescence quenching. As to conditions: 100 mM NaCl; 10 mM Tris-HCl pH 7.04, 25 °C; 5 μM DNA.

Experiment [11] deals with Ap13 (DNA, G4, 2-aminopurine at 13) AGGGTTAGGGTTAGGGTTAGGGTTAGGGTTAGGGTTAGGGTTAGGG
Nature of the experiment: 2-aminopurine fluorescence quenching. As to conditions: 100 mM NaCl; 10 mM Tris-HCl pH 7.04, 25 °C; 5 μM DNA.

The test system of experiment [12] is Ap37 (DNA, G4, 2-aminopurine at 37) AGGGTTAGGGTTAGGGTTAGGGTTAGGGTTAGGGTTAGGGTTAGGG
The experiment can be described thus: 2-aminopurine fluorescence quenching. As to conditions: 100 mM NaCl; 10 mM Tris-HCl pH 7.04, 25 °C; 5 μM DNA.

Experiment [13] concerns Ap7+Ap31 (DNA, G4, 2-aminopurine at 7 and 31) AGGGTTAGGGTTAGGGTTAGGGTTAGGGTTAGGGTTAGGGTTAGGG
The experiment can be described thus: 2-aminopurine fluorescence quenching. As to conditions: 100 mM NaCl; 10 mM Tris-HCl pH 7.04, 25 °C; 5 μM DNA.

Experiment [14] concerns Ap13+Ap37 (DNA, G4, 2-aminopurine at 13 and 37) AGGGTTAGGGTTAGGGTTAGGGTTAGGGTTAGGGTTAGGGTTAGGG
The experiment can be described thus: 2-aminopurine fluorescence quenching. As to conditions: 100 mM NaCl; 10 mM Tris-HCl pH 7.04, 25 °C; 5 μM DNA.

Experiment [15] deals with Ap31 (DNA, G4, 2-aminopurine at 31) AGGGTTAGGGTTAGGGTTAGGGTTAGGGTTAGGGTTAGGGTTAGGG
Nature of the experiment: 2-aminopurine fluorescence quenching and Job's plot. As to conditions: 100 mM NaCl; 10 mM Tris-HCl pH 7.04, 25 °C; Job's plot at 3 μM total.

Setting [16] is: 2:1 complex per G-quadruplex unit (4:1 per strand).

Take `[Ni+2].[O-]c1cc(OCCN2CCCCC2)ccc1C=Nc1ccccc1N=Cc1ccc(OCCN2CCCCC2)cc1[O-]`: the Ka in experiment [1] (100 mM KCl, 370 nm) is 1.15±0.18×10^7 M^-1; in experiment [1] (100 mM NaCl, 370 nm), 4.62±0.64×10^6 M^−1; in experiment [2] (100 mM KCl, 310 nm) it was 1.50±0.22×10^7 M^-1; in [2] (100 mM NaCl, 310 nm) it was 2.34±0.32×10^7 M^−1. Moreover, the “Δ T m” value in experiment [3] (complex:DNA 2:1) amounted to 13.4 °C; in experiment [4] (10 μM complex (4:1)), 20.8 °C; in experiment [5] (setting [16]), 25.1 °C; in experiment [6] (setting [16]), 25.5 °C; in experiment [7] (setting [16]) it was 23.5 °C. Also, the binding entry in experiment [8] and in experiment [9] (32 μM complex) was “yes” throughout.
For the compound `[Ni+2].[Ni+2].[O-]c1cc(OCCN2CCCCC2)ccc1C=Nc1ccc(OCCOCCOCCOc2ccc(N=Cc3ccc(OCCN4CCCCC4)cc3[O-])c(N=Cc3ccc(OCCN4CCCCC4)cc3[O-])c2)cc1N=Cc1ccc(OCCN2CCCCC2)cc1[O-]`, the Ka in experiment [1] (100 mM KCl, 310 nm) was 3.53±0.33×10^6 M^-1; in experiment [1] (100 mM NaCl, 310 nm) it was 8.30±0.75×10^5 M^−1; in [2] (100 mM KCl, 310 nm), 2.52±0.24×10^6 M^-1; in [2] (100 mM NaCl, 310 nm), 2.06±0.40×10^6 M^−1. The compound further registered a Δ T m in experiment [4] (5 μM complex (2:1)) of 8.4 °C.
In the case of `[Ni+2].[Ni+2].[O-]c1cc(OCCN2CCCCC2)ccc1C=Nc1ccc(OCCOCCOc2ccc(N=Cc3ccc(OCCN4CCCCC4)cc3[O-])c(N=Cc3ccc(OCCN4CCCCC4)cc3[O-])c2)cc1N=Cc1ccc(OCCN2CCCCC2)cc1[O-]`, the Ka was 2.39±0.35×10^6 M^-1 in experiment [1] (100 mM KCl, 310 nm); 1.27±0.24×10^6 M^−1 in [1] (100 mM NaCl, 370 nm); 1.19±0.16×10^6 M^-1 in experiment [2] (100 mM KCl, 310 nm); 1.08±0.24×10^6 M^−1 in [2] (100 mM NaCl, 310 nm). Besides, in experiment [4] (5 μM complex (2:1)), the Δ T m was determined as 7.7 °C.
For `[Ni+2].[Ni+2].[O-]c1cc(OCCN2CCCCC2)ccc1C=Nc1ccc(OCCOCCOCCOCCOc2ccc(N=Cc3ccc(OCCN4CCCCC4)cc3[O-])c(N=Cc3ccc(OCCN4CCCCC4)cc3[O-])c2)cc1N=Cc1ccc(OCCN2CCCCC2)cc1[O-]`, the Ka is reported as 2.19±0.32×10^6 M^-1 in experiment [1] (100 mM KCl, 370 nm); 1.05±0.20×10^6 M^−1 in experiment [1] (100 mM NaCl, 370 nm); 1.37±0.25×10^7 M^-1 in experiment [2] (100 mM KCl, 370 nm); 3.15±0.42×10^7 M^−1 in [2] (100 mM NaCl, 370 nm). For the same compound, the “Δ T m” value in experiment [3] (complex:DNA 1:1) came out at 2.0 °C; in experiment [4] (5 μM complex (2:1)), 14.1 °C; in [5] (complex:DNA 2:1), 11.9 °C; in experiment [6] (complex:DNA 2:1), 8.1 °C; in experiment [7] (complex:DNA 2:1) it was 6.3 °C. The binding result in experiment [9] (16 μM complex), in [10], in experiment [11], in experiment [12], in [13] and in [14] was “yes” throughout. For the same compound, the binding result in [15] was “yes”.
